The first assay deals with GDF8 signaling (p-SMAD-3 (Ser423/425)). As to the kind of experiment: AlphaScreen SureFire SMAD3 (p-Ser423/425) assay, GDF8-stimulated cells (GDF pSMAD). In kind it is cell-based. To be noted: GDF8-stimulated pSMAD3, MPC11; tested as the salt form given; read-out: GDF pSMAD (MPC11) (μM), inhibition of GDF8 signaling.
Regarding `CN(C)CCNc1ncnc2ccc(-c3cccnc3-c3cc(Cl)ccc3F)cc12` [compound 1093], the IC50 is 0.2 µM.

The assay is the same for the next values; noted with them: Mus musculus, MPC-11, GDF8-stimulated pSMAD3, MPC11; tested as the salt form given; read-out: GDF pSMAD (MPC11) (μM), inhibition of GDF8 signaling.
Regarding `COc1ccc(C)c(-c2ncccc2-c2ccc3ncnc(N)c3c2)c1` [compound 1015, 6-(2-(5-methoxy-2-methylphenyl)pyridin-3-yl)quinazolin-4-amine], the IC50 worked out at 6.95 µM.

As for `Nc1ncnc2ccc(-c3cccnc3-c3cc(O)ccc3Cl)cc12` [compound 1016, 3-(3-(4-aminoquinazolin-6-yl)pyridin-2-yl)-4-chlorophenol], the IC50 amounted to 2.77 µM.

`Nc1ncnc2ccc(-c3cccnc3-c3cc(OC(F)F)ccc3Cl)cc12` [compound 1017, 6-(2-(2-chloro-5-(difluoromethoxy)phenyl)pyridin-3-yl)quinazolin-4-amine]: the IC50 stood at 2.08 µM.

Take `Nc1ncnc2ccc(-c3cccnc3-c3cc(C(F)F)ccc3Cl)cc12` [compound 1018, 6-(2-(2-chloro-5-(difluoromethyl)phenyl)pyridin-3-yl)quinazolin-4-amine]: the IC50 amounted to 0.735 µM.

As for `Cc1cc(F)c(O)cc1-c1ncccc1-c1ccc2ncnc(N)c2c1` [compound 1019], the IC50 was found to be 7.43 µM.

For `Nc1ncnc2ccc(-c3cccnc3-c3cc(O)c(F)cc3Cl)cc12` [compound 1020, 5-(3-(4-aminoquinazolin-6-yl)pyridin-2-yl)-4-chloro-2-fluorophenol], the IC50 turned out to be 4.77 µM.

Regarding `Cc1cc(-c2ncccc2-c2ccc3ncnc(N)c3c2)ccc1F` [compound 1021, 6-(2-(4-fluoro-3-methylphenyl)pyridin-3-yl)quinazolin-4-amine], the IC50 stood at 0.175 µM.

Regarding `COc1cc(-c2ncccc2-c2ccc3ncnc(N)c3c2)c(C)cc1F` [compound 1022, 6-(2-(4-fluoro-5-methoxy-2-methylphenyl)pyridin-3-yl)quinazolin-4-amine], the IC50 was determined as 13.7 µM.

On to `Nc1ncnc2ccc(-c3cccnc3-c3cc(C(F)F)ccc3F)cc12` [compound 1023, 6-(2-(5-(difluoromethyl)-2-fluorophenyl)pyridin-3-yl)quinazolin-4-amine], for which the IC50 was determined as 0.0958 µM.

For `Cc1ccc(C(F)F)cc1-c1ncccc1-c1ccc2ncnc(N)c2c1` [compound 1024, 6-(2-(5-(difluoromethyl)-2-methylphenyl)pyridin-3-yl)quinazolin-4-amine], the IC50 worked out at 0.577 µM.

As to `Cc1cc(F)c(C(F)F)cc1-c1ncccc1-c1ccc2ncnc(N)c2c1` [compound 1025, 6-(2-(5-(difluoromethyl)-4-fluoro-2-methylphenyl)pyridin-3-yl)quinazolin-4-amine], the IC50 amounted to 0.958 µM.

`Cc1cc(-c2ncccc2-c2ccc3ncnc(NCC(N)=O)c3c2)ccc1F` [compound 1026, 2-((6-(2-(4-fluoro-3-methylphenyl)pyridin-3-yl)quinazolin-4-yl)amino)acetamide]: the IC50 is 0.737 µM.

Consider `Cc1cc(-c2ncccc2-c2ccc3ncnc(NC(C)C(N)=O)c3c2)ccc1F` (centres unmarked) [compound 1027, 2-((6-(2-(4-fluoro-3-methylphenyl)pyridin-3-yl)quinazolin-4-yl)amino)propanamide], for which the IC50 was determined as 10.8 µM.

As to `COC(=O)CNc1ncnc2ccc(-c3cccnc3-c3ccc(F)c(C)c3)cc12` [compound 1028, methyl (6-(2-(4-fluoro-3-methylphenyl)pyridin-3-yl)quinazolin-4-yl)glycinate], the IC50 was found to be 10.4 µM.

As for `Cc1cc(-c2ncccc2-c2ccc3ncnc(NCCC(N)=O)c3c2)ccc1F` [compound 1029, 3-((6-(2-(4-fluoro-3-methylphenyl)pyridin-3-yl)quinazolin-4-yl)amino)propanamide], the IC50 was determined as 2.61 µM.

Regarding `Nc1ncnc2ccc(-c3cccnc3-c3cccc(OC4COC4)c3)cc12` [compound 1030, 6-(2-(3-(oxetan-3-yloxy)phenyl)pyridin-3-yl)quinazolin-4-amine], the IC50 was found to be 1.14 µM.

Take `O=C(O)CNc1ncnc2ccc(-c3cccnc3-c3cc(Cl)ccc3F)cc12` [compound 1031, (6-(2-(5-chloro-2-fluorophenyl)pyridin-3-yl)quinazolin-4-yl)glycine]: the IC50 was determined as 15.8 µM.

Regarding `Cn1ccc(Nc2ncnc3ccc(-c4cccnc4-c4cc(Cl)ccc4F)cc23)n1` [compound 1032, 6-(2-(5-chloro-2-fluorophenyl)pyridin-3-yl)-N-(1-methyl-1H-pyrazol-3-yl)quinazolin-4-amine], the IC50 worked out at 1.09 µM.

In the case of `Fc1ccc(Cl)cc1-c1ncccc1-c1ccc2ncnc(Nc3cn[nH]c3)c2c1` [compound 1033, 6-(2-(5-chloro-2-fluorophenyl)pyridin-3-yl)-N-(1H-pyrazol-4-yl)quinazolin-4-amine], the IC50 is 1.58 µM.

For the compound `Cc1c(F)cc(C(F)F)cc1-c1ncccc1-c1ccc2ncnc(N)c2c1` [compound 1034, 6-(2-(5-(difluoromethyl)-3-fluoro-2-methylphenyl)pyridin-3-yl)quinazolin-4-amine], the IC50 was determined as 0.342 µM.

Turning to `Nc1ncnc2ccc(-c3cccnc3-c3cc(Cl)cc(F)c3F)cc12` [compound 1035, 6-(2-(5-chloro-2,3-difluorophenyl)pyridin-3-yl)quinazolin-4-amine], the IC50 came to 0.161 µM.

For the compound `Nc1ncnc2ccc(-c3cccnc3-c3cc(Cl)ccc3F)nc12` [compound 1039], the IC50 came to 0.0438 µM.

In the case of `CN1CCN(CCCNc2ncnc3ccc(-c4cccnc4-c4cc(Cl)ccc4F)cc23)CC1` [compound 1046], the IC50 came out at 1.63 µM.

`Fc1cc(F)c(F)c(-c2ncccc2-c2ccn3nccc3n2)c1` [compound 1052, 6-(2-(4-Fluoro-2,5-dimethylphenyl)pyridin-3-yl)-[,2,4]triazolo[1,5-a]pyridine]: the IC50 amounted to 3.61 µM.

On to `Fc1cc(-c2ncccc2-c2ccn3nccc3n2)c(F)c(F)c1F` [compound 1053], for which the IC50 amounted to 0.368 µM.

For `Fc1cc(-c2ncccc2-c2ccc3ncsc3c2)c(F)c(F)c1F` [compound 1054], the IC50 came out at 0.737 µM.

Take `Fc1cc(F)c(F)c(-c2ncccc2-c2ccc3ncsc3c2)c1` [compound 1055]: the IC50 was 0.129 µM.

For the compound `Cc1ccc(Cl)cc1-c1ncccc1-c1ccc2ncsc2c1` [compound 1057], the IC50 worked out at 0.371 µM.

For the compound `Cc1cc(-c2ncccc2-c2ccc3ncsc3c2)c(C)cc1F` [compound 1061], the IC50 stood at 0.473 µM.

Consider `Cc1cc(-c2ncccc2-c2ccc3ncc(C#N)n3c2)c(C)cc1F` [compound 1063], for which the IC50 amounted to 4.45 µM.

As to `Cc1cc(-c2ncccc2-c2ccc3ncnn3c2)c(C)cc1F` [compound 1064], the IC50 worked out at 0.804 µM.

As for `c1cnc(-c2ccc3occc3c2)c(-c2ccc3ncsc3c2)c1` [compound 1073], the IC50 came to 0.48 µM.

Regarding `c1cnc(-c2cccc3c2OCC3)c(-c2ccc3ncsc3c2)c1` [compound 1076], the IC50 is 9.67 µM.

Turning to `Nc1ncnc2ccc(-c3cccnc3-c3ccc4occc4c3)cc12` [compound 1083], the IC50 was 0.309 µM.

These data come from US10858335B2 (Rigel Pharmaceuticals, Inc., priority 2014, dated 2020).
